Laboratory results from patent publication US7078063B2, “Water soluble extract from plant of Solanum genus and the preparation process thereof, and pharmaceutical composition containing the water soluble extract” (G & E Herbal Biotechnology Co., LTD., priority 2003, dated 2006).

Assays:
[1] = tested on: H441; test: MTS tetrazolium salt cytotoxicity assay; assay type: cell-based, human; conditions: 12 hrs
Description: Hep3B was incubated in Dulbecco's Modified Eagle's medium (DMEM), while H441 and MCF-7 were incubated in RPMI-1640, both of the media containing 10% fetal bovine serum and 40 mg/L gentamycin.
The cytotoxicity of cancer cells was determined using tetrazolium salt assay (MTS, Mosmann. T., 1983, Immunol. Meth., 65, 55–63), which was conducted for the calorimetric determination of cell viability according to the manufacturer's procedures (CellTiter 96™ AQ, Promega, Madison, USA).
Cells were seeded at 1×10^4 cells/well in a 96-well plate and incubated in 5% CO2 incubator at 37° C. for at least 16 hrs. The water-soluble extract from Solanum incanum L. was dissolved in sterile injection water to give different test concentrations, which were added to each cancer-cell incubating medium in the well, and allowed to react for 12 hrs. 20 μl MTS was then added to each well, and the solution was allowed to react for 3 hrs. Upon completion of the reaction, absorbency in each well was determined at 490 nm by using ELISA reader 312e, Bio-TEK. Each value was expressed as means ±SD from three experiments.
Cytotoxicity was determined by MTS tetrazolium salt assay disclosed in Pharmacological assay 1. […] Data were expressed as means ±SD from three experiments.

[2] = dissolving in water; assay type: physicochemical
[3] = dried powders, without being pre-treated with DMSO
[4] = purified from the water-soluble extract by HPLC

Row | Structure (SMILES) | inhibiting the growth of H441 [1] | dissolving in water [2, 3] | dissolving in water [2, 4]
1 | C[C@@H]1CC[C@@]2(NC1)O[C@H]1C[C@H]3[C@@H]4CC=C5C[C@@H](O[C@@H]6O[C@H](CO)[C@H](O)[C@H](O[C@@H]7O[C@H](CO)[C@@H](O)[C@H](O)[C@H]7O)[C@H]6O[C@@H]6O[C@@H](C)[C@H](O)[C@@H](O)[C@H]6O)CC[C@]5(C)[C@H]4CC[C@]3(C)[C@H]1[C@@H]2C [solasonine] | effectively inhibited | could not dissolve in water | directly dissolved in water
2 | C[C@@H]1CC[C@@]2(NC1)O[C@H]1C[C@H]3[C@@H]4CC=C5C[C@@H](O[C@@H]6O[C@H](CO)[C@@H](O[C@@H]7O[C@@H](C)[C@H](O)[C@@H](O)[C@H]7O)[C@H](O)[C@H]6O[C@@H]6O[C@@H](C)[C@H](O)[C@@H](O)[C@H]6O)CC[C@]5(C)[C@H]4CC[C@]3(C)[C@H]1[C@@H]2C [solamargine] | effectively inhibited | could not dissolve in water | directly dissolved in water
